Experimental data published in article PMC6315506 (Viruses, 2018).

Columns and labels:
Conditions in all cases: 10 µM
[1] = test system: HIV-1/H5N1 pseudovirus; test: organism not typed; assay type: cell-based, influenza A virus A/Goose/Qinghai/59/05 (H5N1)
[2] = test system: A549 cells
[3] = test system: HIV-1/LASV pseudovirus; test: microbe, parasite or virus in culture; assay type: cell-based
[4] = test system: HIV-1/EBOV pseudovirus

Row | Compound | Inhibition HIV/H5N1 [1] [%] | Cell Viability [2] [%] | Inhibition HIV/LASV [3] [%] | Inhibition HIV/EBOV [4] [%]
1 | CN(C)c1ncc2cc(-c3cc4cc(Br)ccc4nc3OCc3cccc4ccccc34)ccc2n1 [SYL1692] | -2.23 | 87.98 | 11.86 | 48.65
2 | CN(C)Cc1ccc(-c2cc3ccccc3nc2OCc2cccc3ccccc23)cc1 [SYL1701] | 98.51 | 88.01 | 97.96 | 99.94
3 | COc1nc2ccc(Br)cc2cc1C(c1ccccc1)C1(OC(=O)c2ccccc2)CCN(C)CC1 (stereo not shown) [SYL1645] | 45.37 | 82.47 | 86.68 | 99.92
4 | COc1nc2ccccc2cc1C(Nc1ccccc1NCCN(C)C)c1ccccc1 (stereo not shown) [SYL1621] | 97.96 | 52.36 | 99.14 | 99.90
5 | CC(=NOCCN(C)C)c1cc2ccccc2nc1Oc1cccc2ccccc12 [SYL1626] | 44.19 | 86.91 | 85.39 | 99.66
6 | CN(C)CCN1CCN(c2ccc(-c3cc4cc(Br)ccc4nc3OCc3cccc4ccccc34)cc2)CC1 [SYL1710] | 97.63 | 1.97 | 98.64 | 99.39
7 | CN(C)Cc1cccc(-c2cc3ccccc3nc2Oc2cccc3ccccc23)c1 [SYL1637] | 97.92 | 80.11 | 81.65 | 99.81
8 | CN(C)C(=O)c1cccc(-c2cc3ccccc3nc2Oc2cccc3ccccc23)c1 [SYL1646] | -23.29 | 83.55 | 82.50 | 99.92
9 | CN(C)Cc1ccc(-c2cc3cc(Br)ccc3nc2SCc2ccccc2)cc1 [SYL1699] | 94.56 | 105.32 | 93.73 | 99.94
10 | CN(C)Cc1ccc(-c2cc3cc(Br)ccc3nc2OCc2ccc(-c3ccccc3)cc2)cc1 [SYL1690] | 98.15 | 80.30 | 86.95 | 99.85
11 | COc1nc2ccc(Br)cc2cc1C(O)(Cc1cccc(F)c1)c1ccccc1CN(C)C (stereo not shown) [SYL1649] | 79.45 | 81.62 | 90.46 | 99.90
12 | CN(C)CCCC(O)(c1ccccc1)c1cc2ccccc2nc1Oc1cccc2ccccc12 (stereo not shown) [SYL1635] | 97.52 | 11.15 | 99.31 | 99.63
13 | COc1ccccc1COc1nc2ccc(Br)cc2cc1-c1ccc(CN(C)C)cc1 [SYL1705] | 59.98 | 86.34 | 88.92 | 99.76
14 | CNCCNCc1ccc(-c2cc3cc(Br)ccc3nc2OCc2cccc3ccccc23)cc1 [SYL1679] | 96.95 | 117.07 | 97.63 | 99.70
15 | CCN(CC)CCc1ccc(-c2cc3cc(Br)ccc3nc2OCc2cccc3ccccc23)cc1 [SYL1671] | 92.36 | 88.97 | 89.90 | 99.87
16 | COc1nc2ccc(Br)cc2cc1C(c1ccccc1)N(CCN(C)C)c1cccc2ccccc12 (stereo not shown) [SYL1623] | 105.28 | 87.19 | 15.39 | 97.68
17 | CN(C)Cc1cccc(-c2cc3cc(Br)ccc3nc2OCc2cccc3ccccc23)c1 [SYL1638] | 98.27 | 18.62 | 99.18 | 99.91
18 | COc1cc(CN(C)C)ccc1-c1cc2cc(Br)ccc2nc1OCc1cccc2ccccc12 [SYL1716] | 98.20 | 1.73 | 99.34 | 99.70
19 | CNCCc1ccc(-c2cc3cc(Br)ccc3nc2OCc2cccc3ccccc23)cc1 [SYL1672] | 98.01 | 2.06 | 99.22 | 99.85
20 | CN(C)Cc1ccc(-c2cc3cc(Br)ccc3nc2OCc2cccc3ccccc23)cc1 [SYL1665] | 84.24 | 82.87 | 88.72 | 99.92
21 | CN(C)Cc1ccc(-c2cc3cc(Br)ccc3nc2N2CCN(C)CC2)cc1 [SYL1713] | 97.68 | 1.24 | 99.40 | 99.58
22 | CN(C)Cc1ccc(-c2cc3cc(Br)ccc3nc2Oc2ccc(OCc3ccccc3)cc2)cc1 [SYL1698] | 97.44 | 107.16 | 98.80 | 99.64

Row | Compound | Inhibition HIV/H5N1 [1] [%] | Cell Viability [2] [%] | Inhibition HIV/LASV [3] [%] | Inhibition HIV/EBOV [4] [%]
23 | CN1CCN(c2ccc(-c3cc4cc(Br)ccc4nc3OCc3cccc4ccccc34)cc2)CC1 [SYL1669] | 96.42 | 82.47 | 92.49 | 99.94
24 | COc1ccc(COc2nc3ccc(Br)cc3cc2-c2ccc(CN(C)C)cc2)cc1 [SYL1706] | 54.58 | 82.99 | 87.40 | 99.20
25 | COc1nc2ccccc2cc1C(O)(Cc1cccc(F)c1)c1ccccc1 (stereo not shown) [SYL1651] | 30.01 | 79.56 | 89.23 | 99.95
26 | CN(C)Cc1ccc(-c2cc3cc(Br)ccc3nc2Oc2ccccc2)cc1 [SYL1676] | 36.23 | 89.65 | 19.98 | 71.19
27 | Brc1ccc2nc(OCc3cccc4ccccc34)c(-c3ccc(N4CCCC4)cc3)cc2c1 [SYL1686] | 65.78 | 82.03 | 90.35 | 99.92
28 | COc1nc2ccc(Br)cc2cc1-c1ccc(CN(C)C)cc1 [SYL1689] | 97.51 | 78.79 | 88.23 | 99.94
29 | C[N+](C)(C)Cc1ccc(-c2cc3cc(Br)ccc3nc2OCc2cccc3ccccc23)cc1.[I-] [SYL1685] | 65.25 | 103.42 | 93.29 | 99.90
30 | Brc1ccc2nc(OCc3cccc4ccccc34)c(-c3ccc(CN4CCN(Cc5ccccc5)CC4)cc3)cc2c1 [SYL1697] | -5.87 | 90.86 | 15.89 | 67.57
31 | CN(C)CCC=C(c1ccccc1)c1cc2ccccc2nc1Oc1cccc2ccccc12.Cl [SYL1627] | 49.35 | 89.09 | 87.33 | 99.84
32 | CN1CCC(c2ccccc2)(C(O)(c2ccccc2)c2ccccc2)CC1 [SYL1661] | 5.09 | 77.89 | 72.11 | 99.91
33 | CN(C)Cc1ccc(-c2cc3cc(Br)ccc3nc2OCc2cccc3ccccc23)cc1F [SYL1678] | 93.90 | 122.25 | 97.25 | 99.38
34 | CN(C)Cc1cccc(-c2cc3cc(Br)ccc3nc2OCc2cccc(F)c2)c1 [SYL1666] | 87.06 | 81.28 | 91.03 | 99.92
35 | Brc1ccc2nc(Oc3cccc4ccccc34)c(-c3ccccc3)cc2c1 [SYL1653] | 64.36 | 82.57 | 87.04 | 99.85
36 | Fc1cccc(COc2nc3ccc(Br)cc3cc2-c2cccc(-c3ncco3)c2)c1 [SYL1650] | -15.72 | 81.60 | 87.63 | 99.92
37 | CN(C)Cc1ccc(-c2cc3cc(Br)ccc3nc2N2CCCCC2)cc1 [SYL1714] | 83.36 | 91.09 | 51.47 | 98.67
38 | COc1nc2ccccc2cc1C(Nc1ccccc1N1CCN(C)C1=O)c1ccccc1 (stereo not shown) [SYL1662] | 68.52 | 89.06 | 89.05 | 99.56
39 | COc1nc2ccccc2cc1C(O)(Cc1cccc(F)c1)c1cccc(CN(C)C)c1 (stereo not shown) [SYL1659] | 96.52 | 36.09 | 97.39 | 99.09
40 | Brc1ccc2nc(OCc3cccc4ccccc34)c(-c3ccc(CN4CCOCC4)cc3)cc2c1 [SYL1708] | 18.60 | 80.29 | 82.96 | 98.58
41 | COc1nc2ccc(Br)cc2cc1C(c1ccccc1)N1CCN(C)c2ccccc21 (stereo not shown) [SYL1628] | -5.51 | 86.44 | 86.50 | 99.91
42 | COc1nc2ccc(Br)cc2cc1C(c1ccccc1)n1cc(CN(C)C)c2ccccc21 (stereo not shown) [SYL1629] | 29.75 | 90.62 | 88.22 | 99.91
43 | CN(C)Cc1cccc(-c2cc3cc(Br)ccc3nc2Nc2cccc3ccccc23)c1 [SYL1656] | 49.96 | 77.79 | 51.43 | 79.70
